Consider 15 compounds from ChEMBL document CHEMBL1137578, “Small molecules block the polymerization of Z alpha1-antitrypsin and increase the clearance of intracellular aggregates” (2007).

Calls of active or inactive are those of the source. The rule behind the calls is not given here.

For assay [1], the species on record is Homo sapiens. In words: Inhibition of polymerization of alpha-1-antitrypsin Z mutant at 10 uM.
The species named for the next assay is Mus musculus. The experiment in a line: (§1) Reduction in intracellular accumulation of alpha-1 antitrypsin Z mutant in mouse Hepa1a cells at 100 uM after 16 hrs. The format is functional.
For assay [2], the species on record is Homo sapiens. In words: Inhibition of polymerization of alpha-1-antitrypsin Z mutant at 5 uM.
The species entered for assay [3] is Homo sapiens. In words: Inhibition of polymerization of alpha-1-antitrypsin Z mutant at 50 uM.
The species entered for assay [4] is Homo sapiens. The experiment in a line: Inhibition of polymerization of alpha-1-antitrypsin Z mutant at 20 uM.
Assay [5] deals with T1, Alpha-1-antichymotrypsin (Homo sapiens) (UniProt P01011).
T1 sequence (whole entry): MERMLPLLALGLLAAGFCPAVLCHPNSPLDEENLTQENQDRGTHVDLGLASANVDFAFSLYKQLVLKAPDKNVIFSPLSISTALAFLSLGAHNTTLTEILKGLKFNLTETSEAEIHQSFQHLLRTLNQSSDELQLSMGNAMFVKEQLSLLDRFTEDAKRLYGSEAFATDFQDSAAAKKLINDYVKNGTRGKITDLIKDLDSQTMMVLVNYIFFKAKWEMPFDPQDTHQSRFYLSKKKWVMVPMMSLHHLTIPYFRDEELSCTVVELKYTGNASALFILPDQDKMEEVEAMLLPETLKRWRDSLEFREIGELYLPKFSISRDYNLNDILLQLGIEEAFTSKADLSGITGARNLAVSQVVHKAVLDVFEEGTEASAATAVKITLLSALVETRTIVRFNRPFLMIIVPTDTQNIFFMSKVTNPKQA
The experiment in a line: Inhibition of polymerization of alpha-1 antichymotrypsin at 200 uM.

Assay [6] in a line: as §1. The format is functional. Details: scale not given: the % may be the effect or the level left.
The species entered for assay [7] is Homo sapiens. The experiment in a line: Inhibition of polymerization of alpha-1-antitrypsin Z mutant.

For the compound `Cc1ccc(S(=O)(=O)Nc2cc(C)c(O)c(Sc3nnc(C)[nH]3)c2)cc1`, the outcome in the assay filed under Homo sapiens [1] and in the assay filed under Homo sapiens [2] was Active. Besides, the outcome in the assay listed under Mus musculus was inactive.
With `Cc1cc(NS(=O)(=O)c2cccc([N+](=O)[O-])c2)cc(C)c1O`, the result in the assay filed under Homo sapiens [1] was Active.
On to `Cc1cc(S(=O)(=O)Nc2cc(C)c(O)c(C)c2)c(C)s1`, for which the outcome in the assay listed under Homo sapiens [3] and in the assay listed under Homo sapiens [4] was Active. Also, in assay [5], the result was inactive. The Activity in assay [6] is recorded as 70%.
With `Cc1cc(NS(=O)(=O)c2ccccc2)cc(Cl)c1O`, the outcome in the assay filed under Homo sapiens [1] was Active.
The same measure, in the same setting: to `Oc1ccc(-c2n[nH]cc2-c2ccn(-c3ccccc3)n2)c(O)c1O` belongs “Active”.
In the case of `Cc1cc(NS(=O)(=O)c2ccc([N+](=O)[O-])cc2)cc(C)c1O`, the result in the assay filed under Homo sapiens [1] was Active.
For `O=C1c2ccc(O)cc2OC(c2ccc(O)c(O)c2O)C1O` (configuration not stated), in the assay listed under Homo sapiens [7], the outcome was Active.
Turning to `Cc1cc(NS(=O)(=O)c2ccccc2)cc(C)c1O`, in the assay filed under Homo sapiens [3], the result was Active.
On to `COc1c(C)cc(NS(=O)(=O)c2ccc(SC)cc2)cc1C`, for which the result in the assay filed under Mus musculus was inactive.
Take `Cc1cc(NS(=O)(=O)c2ccccc2)cc(Br)c1O`: the result in the assay filed under Homo sapiens [1] and in the assay listed under Homo sapiens [2] was Active.
As to `COc1ccccc1Nc1ccc2c(O)cc(S(=O)(=O)O)cc2c1`, the result in the assay filed under Homo sapiens [7] was Active.
Same read-out and setting: to `NS(=O)(=O)c1ccc(Nc2nc(-c3ccc(O)cc3O)cs2)cc1` belongs “Active”.
Take `Cc1ccc(S(=O)(=O)Nc2cc(C)c(O)c(Sc3nnc[nH]3)c2)cc1`: the result in the assay listed under Homo sapiens [1] and in the assay listed under Homo sapiens [2] was Active.
In the case of `Oc1ccc(-c2n[nH]cc2-c2cnn(-c3ccccc3)c2)c(O)c1O`, in the assay listed under Homo sapiens [1], the result was Active.
For `CSc1ccc(C(Nc2ccccn2)c2oc(CO)cc(=O)c2O)cc1` (configuration not stated), the outcome in the assay filed under Homo sapiens [7] was Active.
